According to ChEMBL document CHEMBL4602678, “Identification of Holrhizins E-Q Reveals the Diversity of Nonribosomal Lipopeptides in Paraburkholderia rhizoxinica” (J Nat Prod, 2020):
pIC50: −log10 of the molar value. Where a SMILES comes first, the peptide text is derived from it. The star is where a group is joined. Octanoyl = CCCCCCCC(=O)*; Hexanoyl = CCCCCC(=O)*

Assays:
Bacillus subtilis = assay: Antimicrobial activity against Bacillus subtilis ATCC 6633 incubated for 24 hrs by Kirby-Bauer disk diffusion method; assay type: functional; details: ATCC 6633, 24 h
Rhizoctonia solani = assay: Antimicrobial activity against Rhizoctonia solani incubated for 24 hrs by Kirby-Bauer disk diffusion method; assay type: functional
Aspergillus fumigatus = assay: Antimicrobial activity against Aspergillus fumigatus incubated for 24 hrs by Kirby-Bauer disk diffusion method; assay type: functional
Candida albicans = assay: Antimicrobial activity against Candida albicans incubated for 24 hrs by Kirby-Bauer disk diffusion method; assay type: functional
[1] = Cytotoxicity against human 2B cells incubated for 2 days by MTT assay; assay type: cell-based; details: 48 h
Pseudomonas aeruginosa = assay: Antimicrobial activity against Pseudomonas aeruginosa […] ATCC 27853 incubated for 24 hrs by Kirby-Bauer disk diffusion method; assay type: functional
[2] = Cytotoxicity against human Kasumi cells incubated for 2 days by MTT assay; assay type: functional, cell-based; details: 48 h
K562 = assay: Cytotoxicity against human K562 cells incubated for 2 days by MTT assay; assay type: functional, cell-based; details: K562, 48 h
MCF7 = assay: Cytotoxicity against human MCF7 cells incubated for 2 days by MTT assay; assay type: functional, cell-based; details: MCF7, 48 h
A549 = assay: Cytotoxicity against human A549 cells incubated for 2 days by MTT assay; assay type: functional, cell-based; details: A549, 48 h
MDA-MB-231 = assay: Cytotoxicity against human MDA-MB-231 cells incubated for 2 days by MTT assay; assay type: functional, cell-based; details: MDA-MB-231, 48 h
HCT-116 = assay: Cytotoxicity against human HCT116 cells incubated for 2 days by MTT assay; assay type: functional, cell-based; details: HCT-116, 48 h
Staphylococcus aureus = assay: Antimicrobial activity against Staphylococcus aureus ATCC 29213 incubated for 24 hrs by Kirby-Bauer disk diffusion method; assay type: functional; details: ATCC 29213, 24 h
SGC-7901 = assay: Cytotoxicity against human SGC7901 cells incubated for 2 days by MTT assay; assay type: functional, cell-based; details: SGC-7901, 48 h
HepG2 = assay: Cytotoxicity against human HepG2 cells incubated for 2 days by MTT assay; assay type: functional, cell-based; details: HepG2, 48 h
Escherichia coli = assay: Antimicrobial activity against Escherichia coli ATCC 35218 incubated for 24 hrs by Kirby-Bauer disk diffusion method; assay type: functional; details: ATCC 35218, 24 h

MIC (Bacillus subtilis) | MIC (Rhizoctonia solani) | MIC (Aspergillus fumigatus) | MIC (Candida albicans) | MIC (Pseudomonas aeruginosa) | MIC (Staphylococcus aureus) | MIC (Escherichia coli) | Structure (SMILES) | pIC50 [1] | pIC50 [2] | pIC50 (K562) | pIC50 (MCF7) | pIC50 (A549) | pIC50 (MDA-MB-231) | pIC50 (HCT-116) | pIC50 (SGC-7901) | pIC50 (HepG2)
> 100 µM | > 100 µM | > 100 µM | > 100 µM | > 100 µM | > 100 µM | > 100 µM | CCCCCC(=O)N[C@H](C(=O)N[C@@H](Cc1ccccc1)C(=O)N[C@@H](CCC(=O)O)C(=O)N[C@H](C(=O)N[C@@H](C)C(=O)N[C@H](C(=O)O)[C@@H](C)CC)[C@@H](C)CC)C(C)C (Hexanoyl-VFEIAI-OH) | < 4.40 | < 4.40 | < 4.40 | < 4.40 | < 4.40 | < 4.40 | < 4.40 | < 4.40 | < 4.40
> 100 µM | > 100 µM | > 100 µM | > 100 µM | > 100 µM | > 100 µM | > 100 µM | CCCCCC(=O)N[C@H](C(=O)N[C@@H](Cc1ccccc1)C(=O)N[C@@H](CCC(=O)O)C(=O)N[C@H](C(=O)N[C@@H](C)C(=O)N[C@@H](CC(C)C)C(=O)O)[C@@H](C)CC)C(C)C (Hexanoyl-VFEIAL-OH) | < 4.40 | < 4.40 | < 4.40 | < 4.40 | < 4.40 | < 4.40 | < 4.40 | < 4.40 | < 4.40
> 100 µM | > 100 µM | > 100 µM | > 100 µM | > 100 µM | > 100 µM | > 100 µM | CCCCCC(=O)N[C@H](C(=O)N[C@@H](Cc1ccccc1)C(=O)N[C@@H](CCC(=O)O)C(=O)N[C@@H](CC(C)C)C(=O)N[C@@H](C)C(=O)N[C@H](C(=O)O)[C@@H](C)CC)C(C)C (Hexanoyl-VFELAI-OH) | < 4.40 | < 4.40 | < 4.40 | < 4.40 | < 4.40 | < 4.40 | < 4.40 | < 4.40 | < 4.40
> 100 µM | > 100 µM | > 100 µM | > 100 µM | > 100 µM | > 100 µM | > 100 µM | CCCCCC(=O)N[C@H](C(=O)N[C@@H](Cc1ccccc1)C(=O)N[C@@H](CCC(=O)O)C(=O)N[C@@H](CC(C)C)C(=O)N[C@@H](C)C(=O)N[C@@H](CC(C)C)C(=O)O)C(C)C (Hexanoyl-VFELAL-OH) | < 4.40 | < 4.40 | < 4.40 | < 4.40 | < 4.40 | < 4.40 | < 4.40 | < 4.40 | < 4.40
> 100 µM | > 100 µM | > 100 µM | > 100 µM | > 100 µM | > 100 µM | > 100 µM | CCCCCC(=O)N[C@H](C(=O)N[C@@H](Cc1ccccc1)C(=O)O)C(C)C (Hexanoyl-Val-Phe-OH) | < 4.40 | < 4.40 | < 4.40 | < 4.40 | < 4.40 | < 4.40 | < 4.40 | < 4.40 | < 4.40
> 100 µM | > 100 µM | > 100 µM | > 100 µM | > 100 µM | > 100 µM | > 100 µM | CCCCCCCC(=O)N[C@H](C(=O)N[C@@H](Cc1ccccc1)C(=O)N[C@@H](CCC(=O)O)C(=O)N[C@H](C(=O)O)[C@@H](C)CC)C(C)C (Octanoyl-VFEI-OH) | < 4.40 | < 4.40 | < 4.40 | < 4.40 | < 4.40 | < 4.40 | < 4.40 | < 4.40 | < 4.40
> 100 µM | > 100 µM | > 100 µM | > 100 µM | > 100 µM | > 100 µM | > 100 µM | CCCCCCCC(=O)N[C@H](C(=O)N[C@@H](Cc1ccccc1)C(=O)N[C@@H](CCC(=O)O)C(=O)N[C@H](C(=O)N[C@@H](C)C(=O)N[C@H](C(=O)O)[C@@H](C)CC)[C@@H](C)CC)C(C)C (Octanoyl-VFEIAI-OH) | < 4.40 | < 4.40 | < 4.40 | < 4.40 | < 4.40 | < 4.40 | < 4.40 | < 4.40 | < 4.40
> 100 µM | > 100 µM | > 100 µM | > 100 µM | > 100 µM | > 100 µM | > 100 µM | CCCCCCCC(=O)N[C@H](C(=O)N[C@@H](Cc1ccccc1)C(=O)N[C@@H](CCC(=O)O)C(=O)N[C@H](C(=O)N[C@@H](C)C(=O)N[C@@H](CC(C)C)C(=O)O)[C@@H](C)CC)C(C)C (Octanoyl-VFEIAL-OH) | < 4.40 | < 4.40 | < 4.40 | < 4.40 | < 4.40 | < 4.40 | < 4.40 | < 4.40 | < 4.40
> 100 µM | > 100 µM | > 100 µM | > 100 µM | > 100 µM | > 100 µM | > 100 µM | CCCCCCCC(=O)N[C@H](C(=O)N[C@@H](Cc1ccccc1)C(=O)N[C@@H](CCC(=O)O)C(=O)N[C@H](C(=O)N[C@@H](C)C(=O)N[C@H](C(=O)O)C(C)C)[C@@H](C)CC)C(C)C (Octanoyl-VFEIAV-OH) | < 4.40 | < 4.40 | < 4.40 | < 4.40 | < 4.40 | < 4.40 | < 4.40 | < 4.40 | < 4.40
> 100 µM | > 100 µM | > 100 µM | > 100 µM | > 100 µM | > 100 µM | > 100 µM | CCCCCCCC(=O)N[C@H](C(=O)N[C@@H](Cc1ccccc1)C(=O)N[C@@H](CCC(=O)O)C(=O)N[C@H](C(=O)NCC(=O)N[C@H](C(=O)O)[C@@H](C)CC)[C@@H](C)CC)C(C)C (Octanoyl-VFEIGI-OH) | < 4.40 | < 4.40 | < 4.40 | < 4.40 | < 4.40 | < 4.40 | < 4.40 | < 4.40 | < 4.40
> 100 µM | > 100 µM | > 100 µM | > 100 µM | > 100 µM | > 100 µM | > 100 µM | CCCCCCCC(=O)N[C@H](C(=O)N[C@@H](Cc1ccccc1)C(=O)N[C@@H](CCC(=O)O)C(=O)N[C@@H](CC(C)C)C(=O)O)C(C)C (Octanoyl-VFEL-OH) | < 4.40 | < 4.40 | < 4.40 | < 4.40 | < 4.40 | < 4.40 | < 4.40 | < 4.40 | < 4.40
> 100 µM | > 100 µM | > 100 µM | > 100 µM | > 100 µM | > 100 µM | > 100 µM | CCCCCCCC(=O)N[C@H](C(=O)N[C@@H](Cc1ccccc1)C(=O)N[C@@H](CCC(=O)O)C(=O)N[C@@H](CC(C)C)C(=O)N[C@@H](C)C(=O)N[C@H](C(=O)O)[C@@H](C)CC)C(C)C (Octanoyl-VFELAI-OH) | < 4.40 | < 4.40 | < 4.40 | < 4.40 | < 4.40 | < 4.40 | < 4.40 | < 4.40 | < 4.40
> 100 µM | > 100 µM | > 100 µM | > 100 µM | > 100 µM | > 100 µM | > 100 µM | CCCCCCCC(=O)N[C@H](C(=O)N[C@@H](Cc1ccccc1)C(=O)N[C@@H](CCC(=O)O)C(=O)N[C@@H](CC(C)C)C(=O)N[C@@H](C)C(=O)N[C@@H](CC(C)C)C(=O)O)C(C)C (Octanoyl-VFELAL-OH) | < 4.40 | < 4.40 | < 4.40 | < 4.40 | < 4.40 | < 4.40 | < 4.40 | < 4.40 | < 4.40
> 100 µM | > 100 µM | > 100 µM | > 100 µM | > 100 µM | > 100 µM | > 100 µM | CCCCCCCC(=O)N[C@H](C(=O)N[C@@H](Cc1ccccc1)C(=O)N[C@@H](CCC(=O)O)C(=O)N[C@@H](CC(C)C)C(=O)N[C@@H](C)C(=O)N[C@H](C(=O)O)C(C)C)C(C)C (Octanoyl-VFELAV-OH) | < 4.40 | < 4.40 | < 4.40 | < 4.40 | < 4.40 | < 4.40 | < 4.40 | < 4.40 | < 4.40
> 100 µM | > 100 µM | > 100 µM | > 100 µM | > 100 µM | > 100 µM | > 100 µM | CCCCCCCC(=O)N[C@H](C(=O)N[C@@H](Cc1ccccc1)C(=O)O)C(C)C (Octanoyl-Val-Phe-OH) | < 4.40 | < 4.40 | < 4.40 | < 4.40 | < 4.40 | < 4.40 | < 4.40 | < 4.40 | < 4.40
